This note sets out measurements from PMC8262356, “SLC26A6-selective inhibitor identified in a small-molecule screen blocks fluid absorption in small intestine” (JCI Insight, 2021).

pIC50: −log10 of the molar value.

The subject of series [1] is ileal closed loops in cystic fibrosis (CF) mice (homozygous F508del). Kind of series: Closed ileal loop fluid absorption in CF mice. The class given is in vivo, mouse. The conditions noted are these: 30 μM luminal. How it is done:
For fluid absorption studies in small intestine, mice were given free access to 5% dextrose in water but not solid food for 24 hours before experiments. Closed midjejunal and ileal loops were prepared and isolated as described previously ([29]). Mice were anesthetized with isoflurane, and body temperature was maintained during surgery at 36°C–38°C using a heating pad. A small abdominal incision was made to expose small intestine for isolation of 3–4 closed small intestinal loops (jejunum or ileum, length 2–3 cm) with sutures. Loops were injected with 100 μL PBS (pH 7.4, 137 mM NaCl, 2.7 mM KCl, 8 mM Na2HPO4, 1.8 mM KH2PO4, 1 mM CaCl2, 0.5 mM MgCl2) containing 30 μM PAT1inh-B01, 10 μM DRAinh-A270, or 10 μM tenapanor (MedChemExpress) (or vehicle, 0.1% DMSO in PBS). In some experiments, 30 μM PAT1inh-B01 and 10 μM DRAinh-A270 were used together. In some experiments to rule out effects of sodium-dependent phosphate transport, the loop lumen contained HEPES-buffered saline (pH 7.4, 137 mM NaCl, 4.5 mM KCl, 10 mM HEPES, 1 mM CaCl2, 0.5 mM MgCl2). The abdominal incision was closed with sutures, and mice were allowed to recover from anesthesia. Intestinal loops were removed at 0 and 30 minutes (in separate mice), and loop length and weight were measured to quantify fluid absorption. In parallel experiments, CF mice were used and loop studies were done as described above. In some experiments, loop fluid was emptied with a syringe, and pH was measured immediately using AB15 pH meter after brief centrifugation at 2000 g for 5 minutes at 4°C.

Series [2] can be described thus: Solubility. The class given is physicochemical.
The target in series [3] is T1, PAT1 (murine slc26a6) (Mus musculus, UniProt Q8CIW6).
T1 construct: host or cells: Fischer rat thyroid (FRT) cells, lentiviral transduction (pLVX-IRES-mCherry-slc26a6), clonal line FRT-YFP-slc26a6
T1 sequence (Q8CIW6 24-758 limits assumed): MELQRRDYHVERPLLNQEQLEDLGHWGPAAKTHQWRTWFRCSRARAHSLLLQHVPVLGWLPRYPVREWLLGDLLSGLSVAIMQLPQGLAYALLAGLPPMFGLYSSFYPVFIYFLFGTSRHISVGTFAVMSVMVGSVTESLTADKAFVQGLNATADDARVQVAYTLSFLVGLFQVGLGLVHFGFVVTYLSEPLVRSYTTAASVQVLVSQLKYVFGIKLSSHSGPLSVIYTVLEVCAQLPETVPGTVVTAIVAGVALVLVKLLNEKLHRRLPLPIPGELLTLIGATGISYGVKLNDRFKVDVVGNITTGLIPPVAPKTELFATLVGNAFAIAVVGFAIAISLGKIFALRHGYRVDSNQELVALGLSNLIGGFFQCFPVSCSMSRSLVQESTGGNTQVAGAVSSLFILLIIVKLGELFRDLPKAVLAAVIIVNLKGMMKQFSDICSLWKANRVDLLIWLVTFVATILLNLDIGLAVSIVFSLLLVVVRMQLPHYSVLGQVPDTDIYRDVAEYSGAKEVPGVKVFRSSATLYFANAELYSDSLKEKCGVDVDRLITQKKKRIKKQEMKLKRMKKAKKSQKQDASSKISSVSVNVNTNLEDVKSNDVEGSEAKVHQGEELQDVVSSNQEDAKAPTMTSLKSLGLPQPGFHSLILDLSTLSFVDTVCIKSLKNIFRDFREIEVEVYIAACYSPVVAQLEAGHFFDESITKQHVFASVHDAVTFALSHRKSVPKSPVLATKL
As to the kind of experiment: PAT1-mediated Cl-/HCO3- exchange, cytoplasmic pH in BCECF-loaded FRT cells. The class given is cell-based. Particulars: read-out: IC50, inhibition of Cl-/HCO3- exchange. How it is done: As PAT1 functions as a general monovalent anion exchanger, PAT1inh-B01 inhibition was studied for different modes of anion exchange. […] To measure Cl^–/HCO3^– exchange, the time course of cytoplasmic pH was measured, using BCECF as a pH indicator, in response to a gluconate gradient to drive exchange of cytoplasmic Cl^– with extracellular HCO3^– producing cytoplasmic alkalinization (Figure 2B) as done before for DRA and pendrin ([7], [10], [11]).
YFP-based cellular assays of slc26a3, slc26a4, SLC26A9, and TMEM16A function were performed as described previously ([7]). Slc26a1 and slc26a2 assays were done in transfected HEK 293 cells (see Supplemental Methods for details). Niflumic acid was used as a positive control for SLC26A isoforms ([7]). For TMEM16A, the selective small-molecule inhibitor TMinh-23 was used as a positive control ([28]). The activities of ENaC, CFTR, and CaCC were determined using well-differentiated HBE cells as described previously ([13]). Cl^–/HCO3^– exchange was measured as described previously ([7], [10], [11]). Briefly, cell cytoplasm was labeled with the pH-sensitive fluorescent dye BCECF-AM (Invitrogen), and Cl^–/HCO3^– exchange was measured in response to addition of a gluconate-containing solution to drive exchange of cytoplasmic Cl^– for extracellular HCO3^–, producing cytoplasmic alkalinization.

Regarding `Cc1c(Br)c(C(F)(F)F)nn1CC(=O)N1CCc2nc3cc(-c4ccccc4)[nH]n3c(=O)c2C1` [PAT1inh-B01], the “effect on fluid absorption from ilea of CF mice” value in series [1] is “completely blocked”. In series [2], the solubility entry is “favorable”. The pIC50 in series [3] was 6.54.
